Measured values from patent US10092566B2, “Composition for controlling a gut immunity and use thereof” (SEOUL NATIONAL UNIVERSITY R&DB FOUNDATION, priority 2013, dated 2018).

Test system: DUOX
Experiment: In vivo ROS detection in gut epithelia (HOCl-specific R19S staining, ratio of ROS-positive guts)
Set-up: species or system Drosophila
Excerpt: R19S, a recently developed HOCl-specific rhodamine-based dye, was used in this experiment (Chen et al., Chem Commun (Camb) 47, pp. 4373-4375, 2011). R19S was purchased from Futurechem (Seoul, South Korea). […]
Furthermore, to measure the basal level of ROS in germ-free animals, Drosophila monoassociated with each bacterium (C. intestini, A. pomorum, L. plantarum, G. morbifer, G. morbifer-carA::Tn5, L. brevis, or L. brevisΔcarA) were experimented with as disclosed above. A 5% sucrose solution containing 10 μM of R19S was orally administered to the monoassociated Drosophila (13 days old) for 90 minutes.
Following the R19S ingestion, the midguts were dissected and fixed with 4% formaldehyde. The level of HOCl (ROS level) was visualized by LSM700 confocal microscopy (Carl Zeiss).
For all of the experiments, R19S-positive guts in each animal group (n=approx. 20) were measured by each independent experiment, and data was indicated by at least three repeated and independent experiments. The number of R19S-positive guts in regard to the total numbers of gut samples was indicated as the ratio of ROS-positive guts.

Compound | ROS-inducing ability / DUOX activation (nucleobases and pyrimidine analogs, 20 nM each, ingestion for 15 minutes) | DUOX-dependent ROS after coingestion of uracil with N-acetylcysteine (uracil 20 nM, 1.5 hours, plus N-acetylcysteine)
O=c1[nH]cc(F)c(=O)[nH]1 [5-fluorouracil, reference compound] | only uracil is capable of activating DUOX | –
CC(=O)N[C@@H](CS)C(=O)O [N-acetylcysteine, reference compound] | – | could not be detected
